In paper PMC10448909 (Cancer Research Communications, 2023):
Like-named read-outs stand apart in the source and are kept apart here.

What was measured:
[1] = cited from earlier work
[2] = cited from earlier work; remark: listed apart in the source
[3] = test system: metastatic renal carcinoma; set-up: method as in PMID 10561320; details: phase II, patients with metastatic renal carcinoma; cited from earlier work
advanced solid tumors [4] = details: patients with advanced solid tumors; cited from earlier work
advanced solid tumors [5] = assay: Antitumor activity by RECIST v1.1; format: in vivo, human
Procedure: Efficacy endpoints included best overall response [BOR: complete response (CR), partial response (PR), stable disease (SD), or progressive disease] according to the RECIST v1.1. criteria ([20]), clinical benefit (defined as CR, PR, or SD for ≥12 weeks) and progression-free survival (PFS). PFS was defined as time from first dose to objective disease progression or death, whichever occurred first. CT scans or MRI were performed predose to document the baseline tumor status using the most appropriate criteria for the malignancy type. Target and non-target lesions were selected on the basis of the initial scan. Clinical efficacy was assessed by the investigators according to RECIST v1.1 every two cycles (starting on day 1 of cycle 3).
For the efficacy analysis, objective response and clinical benefit were summarized and 95% exact Clopper–Pearson confidence intervals (CI) were estimated ([21]). Kaplan–Meier estimates were calculated for PFS and the CI for the median PFS was calculated according to Brookmeyer and Crowley ([22]).

[6] = test system: patient-derived renal cell carcinoma xenografts; set-up: method as in earlier work; details: with sunitinib, cabozantinib, axitinib; Friese-Hamim M, personal communication; cited from earlier work
[7] = test system: human tumor cell xenografts in mice; set-up: method as in El Bawab S, personal communication; details: defined by preclinical modeling; ref El Bawab S, personal communication; cited from earlier work
MetAP2 [8] = assay: Met-EF1α pharmacodynamic biomarker in white blood cells; format: in vivo, human; details: 12 mg once daily and higher, from cycle 1, day 15 onward; no obvious dose correlation
Description: (§1) Tumor biopsies were collected during the screening period and on cycle 2, day 1. White blood cell (WBC) samples were collected during the screening period, predose on days 1, 2, 8, and 15 of cycle 1 and postdose on days 1 and 15 of cycle 1. In addition, WBC samples were collected predose on days 1 and 15 of cycle 2.
(§2) No formal significance level was defined for this study and all analyses were considered descriptive.

MetAP2 [9] = assay: Met-EF1α pharmacodynamic biomarker in tumor biopsies; format: in vivo, human; details: cycle 2, day 1
Description: as §1, §2

CO[C@@H]1[C@H](OC(=O)NC(=O)CCl)CC[C@]2(CO2)[C@H]1[C@@]1(C)O[C@@H]1CC=C(C)C [TNP-470]
Neurotoxicity in phase I studies [1]: considerable neurotoxicity | Pharmacokinetic variability in phase I studies [2]: high pharmacokinetic variability | Objective responses [3]: failed to show any significant objective responses

CO[C@@H](C(=O)N[C@H]1CC[C@@H](OC(=O)C2CCCCC2)CNC1=O)[C@H](O)[C@@H](O)[C@H](O)/C=C/C(C)(C)C [LAF389]
Objective responses (advanced solid tumors [4]): failed to show any objective responses

O=C(NCc1cc(F)cc(F)c1)[C@@]1(O)CCN(c2ccc3[nH]ccc3c2)C1=O [M8891]
Duration of stable disease (advanced solid tumors [5]; 7 patients with BOR of SD): 42 to 123 days | Objective responses (advanced solid tumors [5]; all doses, n = 27): no objective responses | Antitumor activity in combination with VEGFR-targeted TKIs [6]: strong and durable antitumor activity | Target Met-EF1α level expected to be correlated with efficacy [7]: 125 μg/mg protein | Pharmacodynamic response in WBCs (MetAP2 [8]): low and variable pharmacodynamic response | Met-EF1α accumulation in tumors (MetAP2 [9]; 7 to 35 mg once daily): tended to increase up to 35 mg once daily in a dose-dependent manner | Met-EF1α levels in tumor (MetAP2 [9]; ≥35 mg once daily): ≥ 125 μg/mg protein
